Legend:
human TGR5 (h-TGR5) = molecular target: T1, human TGR5 (h-TGR5) (Homo sapiens, UniProt Q8TDU6); experiment: TGR5/CRE-Luciferiase Assay (HEK 293 hTGR5/CRE-Luc cells); format: cell-based; conditions: h-TGR5 CRE-Luc EC50, Table 1; read-out: CRE-Luc (EC50)
T1 construct: expressed in transfected cells
T1 sequence (Q8TDU6 1-330): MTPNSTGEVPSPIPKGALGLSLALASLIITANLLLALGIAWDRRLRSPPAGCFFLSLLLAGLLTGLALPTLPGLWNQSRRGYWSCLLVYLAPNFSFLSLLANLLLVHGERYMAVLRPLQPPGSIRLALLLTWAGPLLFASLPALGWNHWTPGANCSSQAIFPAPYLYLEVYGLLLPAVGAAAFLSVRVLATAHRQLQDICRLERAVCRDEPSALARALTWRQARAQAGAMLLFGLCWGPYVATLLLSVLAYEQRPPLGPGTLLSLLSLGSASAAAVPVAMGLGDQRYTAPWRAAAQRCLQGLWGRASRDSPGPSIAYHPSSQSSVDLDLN
In short: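 HEK293 cells stably carrying hTGR5 and a CRE-luciferase reporter were exposed to serially diluted compounds (diluted in DMEM with 5% DMSO) for 6 h. Cells were then lysed in luciferase buffer, luminescence was read, and EC50 values were derived from dose-response curves.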

h-TGR5 = molecular target: T2, h-TGR5 (Homo sapiens, UniProt Q8TDU6); experiment: TGR5 cAMP Assay using Cisbio cAMP Dynamic2 htrf kit (hTGR5CRE-luc HEK 293 cells); format: cell-based; conditions: h-TGR5 cAMP EC50, Table 1; read-out: cAMP (EC50)
T2 construct: expressed in transfected cells
T2 sequence (Q8TDU6 1-330): T1 sequence (Q8TDU6 1-330)
In short: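 […], 4000 hTGR5CRE-luc HEK 293 cells per well, with 0.5 mM IBMX and d2-cAMP, were incubated 30 min at room temperature with compounds in 8-point half-log series, in quadruplicate.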

Structure (SMILES) | EC50 (human TGR5 (h-TGR5)) [µM] | EC50 (h-TGR5) [µM]
CC(=O)COc1ccc(CSc2ncc(C(C)(C)c3ccc(Cl)c(Cl)c3)n2-c2ccc(F)cc2)cc1S(N)(=O)=O [5-[({5-[1-(3,4-dichlorophenyl)-1-methylethyl]-1-(4-fluorophenyl)-1H-imidazol-2-yl}thio)methyl]-2-[(2-oxopropyl)oxy]benzenesulfonamide] | < 0.1 | 0.1 to 1
CC(C)(c1ccc(Cl)c(Cl)c1)c1cnc(SCc2ccc(F)c(C(N)=O)c2)n1-c1ccc(F)cc1 [5-[({5-[1-(3,4-dichlorophenyl)-1-methylethyl]-1-(4-fluorophenyl)-1H-imidazol-2-yl}thio)methyl]-2-fluorobenzamide] | 0.1 to 1 | 0.1 to 1
CC(C)(c1ccc(Cl)c(Cl)c1)c1cnc(SCc2ccc(F)c(S(N)(=O)=O)c2)n1-c1ccc(F)cc1 [5-[({5-[1-(3,4-dichlorophenyl)-1-methylethyl]-1-(4-fluorophenyl)-1H-imidazol-2-yl}thio)methyl]-2-fluorobenzenesulfonamide] | < 0.1 | 0.1 to 1
CC(C)(c1ccc(Cl)c(Cl)c1)c1cnc(SCc2ccc(F)c(C(=O)O)c2)n1-c1ccc(F)cc1 [5-[({5-[1-(3,4-dichlorophenyl)-1-methylethyl]-1-(4-fluorophenyl)-1H-imidazol-2-yl}thio)methyl]-2-fluorobenzoic acid] | 0.1 to 1 | 0.1 to 1
COc1ccc(C(C)(C)c2cnc(SCc3c(F)cccc3C(F)(F)F)n2-c2ccc(F)cc2)cc1OC [5-{1-[3,4-bis(methyloxy)phenyl]-1-methylethyl}-1-(4-fluorophenyl)-2-({[2-fluoro-6-(trifluoromethyl)phenyl]methyl}thio)-1H-imidazole] | < 0.1 | < 0.1
COc1ccc(C(C)(C)c2cnc(CCc3c(F)cccc3Cl)n2-c2ccc(F)cc2)cc1OC [5-{1-[3,4-bis(methyloxy)phenyl]-1-methylethyl}-2-[2-(2-chloro-6-fluorophenyl)ethyl]-1-(4-fluorophenyl)-1H-imidazole] | < 0.1 | < 0.1
COc1ccc(C(C)(C)c2cnc(SCc3c(Cl)cccc3Cl)n2-c2ccc(F)cc2)cc1OC [5-{1-[3,4-bis(methyloxy)phenyl]-1-methylethyl}-2-{[(2,6-dichlorophenyl)methyl]thio}-1-(4-fluorophenyl)-1H-imidazole] | < 0.1 | < 0.1
COc1ccc(C(C)(C)c2cnc(SCc3ccc(F)cc3Cl)n2-c2ccc(F)cc2)cc1OC [5-{1-[3,4-bis(methyloxy)phenyl]-1-methylethyl}-2-{[(2-chloro-4-fluorophenyl)methyl]thio}-1-(4-fluorophenyl)-1H-imidazole] | < 0.1 | 0.1 to 1
COc1ccc(C(C)(C)c2cnc(SCc3cc(F)ccc3Cl)n2-c2ccc(F)cc2)cc1OC [5-{1-[3,4-bis(methyloxy)phenyl]-1-methylethyl}-2-{[(2-chloro-5-fluorophenyl)methyl]thio}-1-(4-fluorophenyl)-1H-imidazole] | < 0.1 | < 0.1
COc1ccc(C(C)(C)c2cnc(COc3c(F)cccc3Cl)n2-c2ccc(F)cc2)cc1OC [5-{1-[3,4-bis(methyloxy)phenyl]-1-methylethyl}-2-{[(2-chloro-6-fluorophenyl)oxy]methyl}-1-(4-fluorophenyl)-1H-imidazole] | < 0.1 | < 0.1
COc1ccc(C(C)(C)c2cnc(CSc3c(F)cccc3Cl)n2-c2ccc(F)cc2)cc1OC [5-{1-[3,4-bis(methyloxy)phenyl]-1-methylethyl}-2-{[(2-chloro-6-fluorophenyl)thio]methyl}-1-(4-fluorophenyl)-1H-imidazole] | < 0.1 | < 0.1
COc1ccc(C(C)(C)c2cnc(SCc3cc(F)cc(Cl)c3)n2-c2ccc(F)cc2)cc1OC [5-{1-[3,4-bis(methyloxy)phenyl]-1-methylethyl}-2-{[(3-chloro-5-fluorophenyl)methyl]thio}-1-(4-fluorophenyl)-1H-imidazole] | < 0.1 | < 0.1
COc1ccc(C(C)(C)c2c(Cl)nc(SCc3c(F)cccc3Cl)n2-c2ccc(F)cc2)cc1OC [5-{1-[3,4-bis(methyloxy)phenyl]-1-methylethyl}-4-chloro-2-{[(2-chloro-6-fluorophenyl)methyl]thio}-1-(4-fluorophenyl)-1H-imidazole] | < 0.1 | < 0.1
CC(C)(c1ccc(Cl)c(Cl)c1)c1c(Cl)nc(SCc2ccc(-c3nnn[nH]3)c(Cl)c2)n1-c1ccc(F)cc1 [5-{2-chloro-4-[({4-chloro-5-[1-(3,4-dichlorophenyl)-1-methylethyl]-1-(4-fluorophenyl)-1H-imidazol-2-yl}thio)methyl]phenyl}-1H-tetrazole] | 0.1 to 1 | 1 to 10
CC(C)(c1ccc(Cl)c(Cl)c1)c1cnc(SCc2ccc(Cl)c(-c3nnn[nH]3)c2)n1-c1cccc(Cl)c1 [5-{2-chloro-5-[({1-(3-chlorophenyl)-5-[1-(3,4-dichlorophenyl)-1-methylethyl]-1H-imidazol-2-yl}thio)methyl]phenyl}-1H-tetrazole] | 0.1 to 1 | 0.1 to 1
CC(C)(c1ccc(Cl)c(Cl)c1)c1cnc(SCc2ccc(Cl)c(-c3nnn[nH]3)c2)n1-c1ccc(F)cc1 [5-{2-chloro-5-[({5-[1-(3,4-dichlorophenyl)-1-methylethyl]-1-(4-fluorophenyl)-1H-imidazol-2-yl}thio)methyl]phenyl}-1H-tetrazole] | 0.1 to 1 | 0.1 to 1
CC(C)(c1ccc(Cl)c(Cl)c1)c1cnc(SCC2CCN(c3nnn[nH]3)C2)n1-c1ccc(F)cc1 (stereo not drawn) [5-{3-[({5-[1-(3,4-dichlorophenyl)-1-methylethyl]-1-(4-fluorophenyl)-1H-imidazol-2-yl}thio)methyl]pyrrolidin-1-yl}-1H-tetrazole] | 0.1 to 1 | 1 to 10
CC(C)(c1ccc(Cl)c(Cl)c1)c1cnc(SCc2ccc(-c3nnn[nH]3)cc2Cl)n1-c1ccc(F)cc1 [5-{3-chloro-4-[({5-[1-(3,4-dichlorophenyl)-1-methylethyl]-1-(4-fluorophenyl)-1H-imidazol-2-yl}thio)methyl]phenyl}-1H-tetrazole] | 0.1 to 1 | 0.1 to 1
CC(C)(c1ccc(Cl)c(Cl)c1)c1cnc(SCc2c(F)cc(-c3nnn[nH]3)cc2F)n1-c1ccc(F)cc1 [5-{4-[({5-[1-(3,4-dichlorophenyl)-1-methylethyl]-1-(4-fluorophenyl)-1H-imidazol-2-yl}thio)methyl]-3,5-difluorophenyl}-1H-tetrazole] | 0.1 to 1 | 0.1 to 1
CC(C)(c1ccc(Cl)c(Cl)c1)c1cnc(SCc2ccc(-c3nnn[nH]3)cc2F)n1-c1ccc(F)cc1 [5-{4-[({5-[1-(3,4-dichlorophenyl)-1-methylethyl]-1-(4-fluorophenyl)-1H-imidazol-2-yl}thio)methyl]-3-fluorophenyl}-1H-tetrazole] | 0.1 to 1 | 0.1 to 1
CC(C)(c1ccc(Cl)c(Cl)c1)c1cnc(SCc2cc(-c3nnn[nH]3)ccc2Cl)n1-c1ccc(F)cc1 [5-{4-chloro-3-[({5-[1-(3,4-dichlorophenyl)-1-methylethyl]-1-(4-fluorophenyl)-1H-imidazol-2-yl}thio)methyl]phenyl}-1H-tetrazole] | 0.1 to 1 | 0.1 to 1
COc1ccc(Cc2cnc(SCc3ccc(F)cc3Cl)n2-c2ccc(F)cc2)cc1OC [5-{[3,4-bis(methyloxy)phenyl]methyl}-2-{[(2-chloro-4-fluorophenyl)methyl]thio}-1-(4-fluorophenyl)-1H-imidazole] | < 0.1 | < 0.1
CC(C)(c1ccc(CO)c(Cl)c1)c1cnc(SCc2ccc(F)cc2Cl)n1-c1ccc(F)cc1 [(2-chloro-4-{1-[2-{[(2-chloro-4-fluorophenyl)methyl]thio}-1-(4-fluorophenyl)-1H-imidazol-5-yl]-1-methylethyl}phenyl)methanol] | 0.1 to 1 | 0.1 to 1
COc1cc(C(C)(C)c2cnc(SCc3c(F)cc(OCC/C=N/NC(=N)N)cc3Cl)n2-c2ccc(F)cc2)ccc1Cl [(2E)-2-(3-{[3-chloro-4-({[5-{1-[4-chloro-3-(methyloxy)phenyl]-1-methylethyl}-1-(4-fluorophenyl)-1H-imidazol-2-yl]thio}methyl)-5-fluorophenyl]oxy}propylidene) hydrazinecarboximidamide] | < 0.1 | < 0.1
CC(C)(c1ccc(Cl)c(Cl)c1)c1cnc(SCc2ccc(OCC(=O)O)c(S(N)(=O)=O)c2)n1-c1ccc(F)cc1 [({2-(aminosulfonyl)-4-[({5-[1-(3,4-dichlorophenyl)-1-methylethyl]-1-(4-fluorophenyl)-1H-imidazol-2-yl}thio)methyl]phenyl}oxy)acetic acid] | 0.1 to 1 | 0.1 to 1
CC(C)(c1ccc(Cl)c(Cl)c1)c1cnc(SCc2ccc(F)c(OCC(=O)O)c2)n1-c1ccc(F)cc1 [({5-[({5-[1-(3,4-dichlorophenyl)-1-methylethyl]-1-(4-fluorophenyl)-1H-imidazol-2-yl}thio)methyl]-2-fluorophenyl}oxy)acetic acid] | 0.1 to 1 | 0.1 to 1
COc1cc(C(C)(C)c2cnc(SCc3c(F)cc(C(=O)NCS(=O)(=O)O)cc3Cl)n2-c2ccc(F)cc2)ccc1Cl [({[3-chloro-4-({[5-{1-[4-chloro-3-(methyloxy)phenyl]-1-methylethyl}-1-(4-fluorophenyl)-1H-imidazol-2-yl]thio}methyl)-5-fluorophenyl]carbonyl}amino) methanesulfonic acid] | < 0.1 | < 0.1

— US8785488B2 (Exelixis Patent Company LLC, priority 2009, dated 2014)
